Experiment: Log P by HPLC on reversed phase, method [a], acidic range (0.1% formic acid)
Assay type: physicochemical
Conditions: LC-UV, 0.1% formic acid in water and acetonitrile

| LogP | SMILES |
| --- | --- |
| 2.01^[a] | Cc1c(NC(=O)c2cccnc2C(F)F)cnn1CCC(C)C [Example 2] |
| 3.51^[a] | CC(C)c1cccc(-n2ncc(NC(=O)c3cccnc3C(F)F)c2C(F)(F)F)c1 [Example 3] |
| 2.44^[a] | Cc1cnc(C(F)F)c(C(=O)Nc2cnn(-c3ccccc3)c2C(F)(F)F)c1 [Example 4] |
| 2.25^[a] | Cc1c(NC(=O)c2cccnc2C(F)F)cnn1-c1cccc(Cl)c1 [Example 5] |
| 1.63^[a] | Cc1c(NC(=O)c2cccnc2C(F)F)cnn1C(C)(C)C [Example 6] |
| 1.69^[a] | CCCCn1ncc(NC(=O)c2cccnc2C(F)F)c1C [Example 7] |
| 1.89^[a] | CCC(CC)n1ncc(NC(=O)c2cccnc2C(F)F)c1C [Example 8] |
| 2.53^[a] | O=C(Nc1cnn(-c2ccccc2)c1C(F)(F)F)c1cccnc1C(F)F [Example 9] |
| 3.02^[a] | O=C(Nc1cnn(-c2ccc(Cl)cc2)c1C(F)(F)F)c1cccnc1C(F)F [Example 10] |
| 1.83^[a] | Cc1c(NC(=O)c2cccnc2C(F)F)cnn1C1CCCC1 [Example 11] |
| 1.78^[a] | Cc1c(NC(=O)c2cccnc2C(F)F)cnn1-c1ccccc1 [Example 12] |
| 2.25^[a] | Cc1ccc(C)c(-n2ncc(NC(=O)c3cccnc3C(F)F)c2C)c1 [Example 13] |
| 1.68^[a] | CC(C)n1ncc(NC(=O)c2cccnc2C(F)F)c1C1CC1 [Example 14] |
| 1.99^[a] | Cc1nn(-c2cccc(F)c2)c(C)c1NC(=O)c1cccnc1C(F)F [Example 15] |
| 2.27^[a] | Cc1nn(-c2cccc(F)c2)c(C)c1NC(=O)c1cccnc1C(F)(F)F [Example 16] |
| 1.81^[a] | Cc1nn(-c2ccccc2)c(C)c1NC(=O)c1cccnc1C(F)F [Example 17] |
| 2.07^[a] | Cc1nn(-c2ccccc2)c(C)c1NC(=O)c1cccnc1C(F)(F)F [Example 18] |
| 2.69^[a] | O=C(Nc1cnn(-c2ccc(Cl)cc2)c1C(F)F)c1cccnc1C(F)F [Example 23] |
| 2.69^[a] | O=C(Nc1cnn(-c2cccc(Cl)c2)c1C(F)F)c1cccnc1C(F)F [Example 24] |
| 2.37^[a] | O=C(Nc1cnn(-c2cccc(F)c2)c1C(F)F)c1cccnc1C(F)F [Example 25] |
| 2.48^[a] | O=C(Nc1cnn(-c2cccc(C(F)F)c2)c1C(F)F)c1cccnc1C(F)F [Example 26] |
| 2.37^[a] | Cc1ccccc1-n1ncc(NC(=O)c2cccnc2C(F)F)c1C(F)F [Example 27] |
| 2.80^[a] | O=C(Nc1cnn(-c2ccc(Br)cc2)c1C(F)F)c1cccnc1C(F)F [Example 28] |
| 2.62^[a] | O=C(Nc1cnn(-c2cc(F)cc(F)c2)c1C(F)F)c1cccnc1C(F)F [Example 29] |
| 2.88^[a] | O=C(Nc1cnn(-c2cccc(C(F)(F)F)c2)c1C(F)F)c1cccnc1C(F)F [Example 30] |
| 2.51^[a] | O=C(Nc1cnn(-c2ccccc2C(F)(F)F)c1C(F)F)c1cccnc1C(F)F [Example 31] |
| 2.20^[a] | O=C(Nc1cnn(-c2ccc(F)cc2)c1C(F)F)c1cccnc1C(F)F [Example 32] |

| LogP | SMILES |
| --- | --- |
| 2.32^[a] | O=C(Nc1cnn(-c2ccccc2F)c1C(F)F)c1cccnc1C(F)F [Example 33] |
| 2.07^[a] | Cc1nn(-c2ccccc2)c(Br)c1NC(=O)c1cccnc1C(F)F [Example 35] |
| 1.90^[a] | Cc1cnc(C(F)F)c(C(=O)Nc2cnn(C(C)(C)C)c2C)c1 [Example 36] |
| 2.25^[a] | Cc1c(NC(=O)c2ccc(Cl)nc2C(F)F)cnn1C(C)(C)C [Example 37] |
| 2.12^[a] | CCC(CC)n1ncc(NC(=O)c2cc(C)cnc2C(F)F)c1C [Example 38] |
| 2.51^[a] | CCC(CC)n1ncc(NC(=O)c2ccc(Cl)nc2C(F)F)c1C [Example 39] |
| 2.09^[a] | Cc1cnc(C(F)F)c(C(=O)Nc2cnn(C3CCCC3)c2C)c1 [Example 40] |
| 2.46^[a] | Cc1c(NC(=O)c2ccc(Cl)nc2C(F)F)cnn1C1CCCC1 [Example 41] |
| 1.95^[a] | Cc1cnc(C(F)F)c(C(=O)Nc2cnn(C(C)C)c2C2CC2)c1 [Example 42] |
| 2.33^[a] | CC(C)n1ncc(NC(=O)c2ccc(Cl)nc2C(F)F)c1C1CC1 [Example 43] |
| 2.88^[a] | Cc1ccc(C)c(-n2ncc(NC(=O)c3ccc(Cl)nc3C(F)F)c2C)c1 [Example 45] |
| 2.25^[a] | Cc1c(NC(=O)c2cccnc2C(F)F)cnn1-c1ccc(Cl)cc1 [Example 46] |
| 1.94^[a] | Cc1c(NC(=O)c2cccnc2C(F)F)cnn1-c1ccccc1Cl [Example 47] |
| 2.11^[a] | Cc1cccc(-n2ncc(NC(=O)c3cccnc3C(F)F)c2C)c1 [Example 48] |
| 2.82^[a] | O=C(Nc1cnn(-c2ccccc2C(F)(F)F)c1C(F)(F)F)c1cccnc1C(F)F [Example 49] |
| 3.21^[a] | O=C(Nc1cnn(-c2ccc(C(F)(F)F)cc2)c1C(F)(F)F)c1cccnc1C(F)F [Example 50] |
| 3.48^[a] | O=C(Nc1cnn(-c2cccc(C(F)(F)F)c2)c1-c1cccc(Cl)c1)c1cccnc1C(F)F [Example 53] |
| 3.31^[a] | O=C(Nc1cnn(-c2cccc(Cl)c2)c1-c1cccc(Cl)c1)c1cccnc1C(F)F [Example 54] |
| 3.58^[a] | O=C(Nc1cnn(-c2ccc(C(F)(F)F)cc2)c1-c1cccc(Cl)c1)c1cccnc1C(F)F [Example 55] |
| 3.35^[a] | O=C(Nc1cnn(-c2ccc(Cl)cc2)c1-c1cccc(Cl)c1)c1cccnc1C(F)F [Example 56] |
| 2.75^[a] | O=C(Nc1cnn(-c2ccccc2F)c1-c1cccc(Cl)c1)c1cccnc1C(F)F [Example 57] |
| 2.98^[a] | O=C(Nc1cnn(-c2cccc(F)c2)c1-c1cccc(Cl)c1)c1cccnc1C(F)F [Example 58] |
| 3.09^[a] | O=C(Nc1cnn(-c2cccc(Br)c2)c1C(F)(F)F)c1cccnc1C(F)F [Example 60] |
| 2.88^[a] | O=C(Nc1cnn(-c2cc(F)cc(F)c2)c1C(F)(F)F)c1cccnc1C(F)F [Example 61] |
| 2.66^[a] | O=C(Nc1cnn(-c2cccc(F)c2)c1C(F)(F)F)c1cccnc1C(F)F [Example 62] |
| 3.13^[a] | O=C(Nc1cnn(-c2ccc(Br)cc2)c1C(F)(F)F)c1cccnc1C(F)F [Example 63] |
| 2.71^[a] | O=C(Nc1cnn(-c2cccc(C(F)F)c2)c1C(F)(F)F)c1cccnc1C(F)F [Example 64] |

| LogP | SMILES |
| --- | --- |
| 2.51^[a] | Cc1cnc(C(F)F)c(C(=O)Nc2cnn(-c3cccc(Cl)c3)c2C)c1 [Example 65] |
| 2.88^[a] | Cc1c(NC(=O)c2ccc(Cl)nc2C(F)F)cnn1-c1cccc(Cl)c1 [Example 66] |
| 2.35^[a] | Cc1cccc(-n2ncc(NC(=O)c3cc(C)cnc3C(F)F)c2C)c1 [Example 67] |
| 2.73^[a] | Cc1cccc(-n2ncc(NC(=O)c3ccc(Cl)nc3C(F)F)c2C)c1 [Example 68] |
| 2.17^[a] | Cc1cnc(C(F)F)c(C(=O)Nc2cnn(-c3ccccc3Cl)c2C)c1 [Example 69] |
| 2.56^[a] | Cc1c(NC(=O)c2ccc(Cl)nc2C(F)F)cnn1-c1ccccc1Cl [Example 70] |
| 2.49^[a] | Cc1cnc(C(F)F)c(C(=O)Nc2cnn(-c3ccc(Cl)cc3)c2C)c1 [Example 71] |
| 2.86^[a] | Cc1c(NC(=O)c2ccc(Cl)nc2C(F)F)cnn1-c1ccc(Cl)cc1 [Example 72] |
| 2.71^[a] | Cc1ccccc1-n1ncc(NC(=O)c2cccnc2C(F)F)c1C(F)(F)F [Example 73] |
| 2.71^[a] | O=C(Nc1cnn(-c2ccccc2Br)c1C(F)(F)F)c1cccnc1C(F)F [Example 74] |
| 2.08^[a] | Cc1nn(-c2ccccc2)c(Cl)c1NC(=O)c1cccnc1C(F)F [Example 75] |
| 1.88^[a] | COc1c(NC(=O)c2cccnc2C(F)F)c(C)nn1-c1ccccc1 [Example 76] |
| 3.06^[a] | O=C(Nc1cnn(-c2ccccc2C(F)(F)F)c1-c1cccc(Cl)c1)c1cccnc1C(F)F [Example 78] |
| 2.53^[a] | O=C(Nc1cnn(-c2ccccc2Cl)c1-c1ccccc1)c1cccnc1C(F)F [Example 79] |
| 2.90^[a] | O=C(Nc1cnn(-c2ccccc2Cl)c1-c1ccc(Cl)cc1)c1cccnc1C(F)F [Example 80] |
| 2.88^[a] | O=C(Nc1cnn(-c2ccccc2Cl)c1-c1cccc(Cl)c1)c1cccnc1C(F)F [Example 81] |
| 2.66^[a] | O=C(Nc1cnn(-c2ccccc2Cl)c1-c1cccc(F)c1)c1cccnc1C(F)F [Example 82] |
| 2.66^[a] | O=C(Nc1cnn(-c2ccccc2Cl)c1-c1ccc(F)cc1)c1cccnc1C(F)F [Example 83] |
| 3.00^[a] | O=C(Nc1cnn(-c2cccc(Cl)c2)c1C(F)(F)F)c1cccnc1C(F)F [Example 84] |
| 3.19^[a] | O=C(Nc1cnn(-c2cccc(C(F)(F)F)c2)c1C(F)(F)F)c1cccnc1C(F)F [Example 85] |
| 2.73^[a] | Cc1cccc(-n2ncc(NC(=O)c3cccnc3C(F)F)c2C(F)(F)F)c1 [Example 86] |
| 2.86^[a] | Cc1ccc(-n2ncc(NC(=O)c3cccnc3C(F)F)c2C(F)(F)F)cc1 [Example 87] |
| 2.55^[a] | O=C(Nc1cnn(-c2ccccc2F)c1C(F)(F)F)c1cccnc1C(F)F [Example 88] |
| 2.64^[a] | O=C(Nc1cnn(-c2ccc(F)cc2)c1C(F)(F)F)c1cccnc1C(F)F [Example 89] |
| 3.55^[a] | CC(C)c1ccc(-n2ncc(NC(=O)c3cccnc3C(F)F)c2C(F)(F)F)cc1 [Example 90] |
| 2.94^[a] | O=C(Nc1cnn(-c2c(Cl)cccc2Cl)c1C(F)(F)F)c1cccnc1C(F)F [Example 91] |

Same assay, conditions: reversed phase HPLC column, LC-UV, 0.1% formic acid in water and acetonitrile

| chromatographic logP | SMILES |
| --- | --- |
| 2.8 | O=C(Nc1cnn(-c2ccccc2)c1C(F)(F)F)c1ccc(Cl)nc1C(F)F [Example 1, 6-chloro-2-(difluoromethyl)-N-[1-phenyl-5-(trifluoromethyl)-1H-pyrazol-4-yl]nicotinamide] |
| 2.9 | FC(F)c1cccc(-n2ncc(NC(=S)c3cccnc3C(F)F)c2C(F)F)c1 [Example 34, 2-(difluoromethyl)-N-{5-(difluoromethyl)-1-[3-(difluoromethyl)phenyl]-1H-pyrazol-4-yl}pyridine-3-carbothioamide] |
